Results reported in patent publication US20060024708A1, “Porcine sulfotransferase 2A1 polynucleotide sequence, protein, and methods of use for same” (UNIVERSITY OF GUELPH, priority 2004, published 2006).

Assays:
rat SULT2A1 gene = details: Makishima et al., 1999; cited from earlier work
[1] = tested on: sulfotransferase activity towards 5α-androstenone in Leydig cells; experiment: Inhibition studies: production of sulfoconjugated 16-androstene steroids from radiolabelled pregnenolone by purified Leydig cells; assay type: cell-based, boar; details: for production of sulfoconjugated 16-androstene steroids from pregnenolone: 8 hours, 0, 5, 10, 50 or 100 μM inhibitor
Experimental: Purified Leydig cells were resuspended (50×10^6 cells/incubation) into a final volume of 25 ml of Williams Media E mixture. Radiolabelled [7-^3H(N)]-pregnenolone (3.4μCi/μmol) was added as a substrate to give a final concentration of 0.4 μmol/incubation. Leydig cells were incubated for a total of 8 hours at 37° C. under 95%:5% CO2 atmosphere at in a Dubnoff shaking waterbath in the presence of 0, 5, 10, 50, or 100 μM of various sulfotransferase inhibitors. 8 hour incubations were used, as this is an optimal time-point for steroid conjugation under these conditions. […] Estrone was used as an EST-inhibitor. The sulfotransferase activity towards 5α-androstenone was determined by HPLC analysis of extracted 5 ml media aliquots.
Prior to analysis, conjugated steroids were separated from unconjugated steroids with the use of Sep-Pak C18 solid-phase chromatography cartridges as described previously (Raeside et al., 1997). After separation, the conjugate fraction was hydrolyzed overnight in trifluroacetic acid/ethyl acetate (1/100 v/v) at 45° C. in order to liberate the sulfoconjugated steroids (Raeside et al., 1999b). The solvolyzed steroids were then re-extracted by solid-phase chromatography. Enzyme hydrolysis was performed on the remaining conjugated material present after solvolysis with 1250 units of β-glucuronidase (type B-1, from bovine liver), and incubated overnight at 37° C.
The unconjugated and hydrolyzed steroids from the inhibition studies were analyzed by HPLC using the same protocol as stated above; however; radiolabelled steroids were measured on-line with a Canberra-Packard 500TR flow scintillation analyzer.

Leydig cells = experiment: Viability of isolated Leydig cells (trypan blue exclusion test); assay type: cell-based, boar; details: 100 μM, 8 h of exposure
Experimental: After the slaughter of group A boars, bulbourethral glands were removed and measured for length. A backfat sample was removed from the midline on the point of the 11th rib and frozen at −20° C. until assayed for 5α-androstenone. Testes samples were obtained from five randomly selected animals immediately after slaughter. Testes were transported to the laboratory within five minutes of their removal from the boar. One testis was dissected free from the epididymis, cut longitudinally, and decapsulated. The tissue was sliced and 100 g of tissue was incubated for 12 min in a shaking water bath at 37° C. with 1 mg/mL collagenase (type 1A), 50 μg/mL trypsin inhibitor, and 50 μg/mL DNase in 250 mL of Williams Media E containing 1 g/L bovine serum albumin and 0.1 g/L L-glutamine. Purified Leydig cells were obtained by layering the collagenase dispersed cells onto discontinuous Percoll gradients (Raeside and Renaud, 1983). Cell viability was determined with a trypan blue exclusion test. The typical viability of the isolated Leydig cells was 90%.
Purified Leydig cells were resuspended (50×10^6 cells/incubation) into a final volume of 25 ml of Williams Media E mixture. […] The sulfotransferase activity towards 5α-androstenone was determined by HPLC analysis of extracted 5 ml media aliquots.

HST = details: Okuda et al., 1989; Singer et al., 1984; cited from earlier work

Question: For `C[C@H](CCC(=O)O)[C@H]1CC[C@H]2[C@@H]3[C@H](O)C[C@@H]4C[C@H](O)CC[C@]4(C)[C@H]3CC[C@]12C` [Chenodeoxycholic acid], which “induction of the rat SULT2A1 gene” value (rat SULT2A1 gene) is on record?
Answer: strong inducer

Question: Which “production of sulfoconjugated 16-androstene steroids from pregnenolone” value ([1]; Leydig cells) does the source give for `Oc1c(Cl)c(Cl)c(Cl)c(Cl)c1Cl` [PCP, Pentachlorophenol] here?
Answer: no effect

Question: What about the “viability of the Leydig cells” value (Leydig cells) of the same compound?
Answer: less than 50%

Question: What about the “inhibition of HST” value (HST) of the same compound?
Answer: does not inhibit

Question: With `CCN(CC)CC` [Triethylamine] as the compound, how does the “production of the unconjugated forms of the 16-androstene steroids” value ([1]; Leydig cells treated with inhibitor, 8 hours) read?
Answer: increased production

Question: What about the “production of sulfoconjugated 16-androstene steroids from pregnenolone” value ([1]; Leydig cells) of the same compound?
Answer: decreased production

Question: And the “production of sulfoconjugated 16-androstene steroids at the 100 μM level” value ([1]; Leydig cells, 8 hours, 100 μM inhibitor)?
Answer: near zero levels

Question: What about the “viability of the Leydig cells” value (Leydig cells) of the same compound?
Answer: 85%
